From article PMC9147024 (2022)

Columns and labels:
Test in all cases: SPR
[1] = test system: AATAAT (DNA, hairpin) CCAATAATGCTCTCATTATTGG; conditions: Na+ 100 mM, 50 mM Tris-HCl, 1 mM EDTA, pH 7.4, 25 °C
[2] = test system: AAAGAAA (DNA, hairpin) CCAAAGAAAGCTCTCTTTCTTTGG; conditions: Na+ 100 mM, 50 mM Tris-HCl, 1 mM EDTA, pH 7.4, 25 °C
[3] = test system: AAATTT (DNA, hairpin) CCAAATTTGCTCTCAAATTTGG; conditions: Na+ 100 mM, 50 mM Tris-HCl, 1 mM EDTA, pH 7.4, 25 °C
[4] = test system: ATAGTAT (DNA, hairpin) CCATAGTATGCTCTCATACTATGG; conditions: Na+ 100 mM; 50 mM Tris-HCl, 1 mM EDTA, pH 7.4, 25 °C
[5] = test system: ATAGCTAT (DNA, hairpin) CCATAGCTATGCTCTCATAGCTATGG; conditions: Na+ 100 mM; 50 mM Tris-HCl, 1 mM EDTA, pH 7.4, 25 °C
[6] = test system: AATGCAAT (DNA, hairpin) CCAATGCAATGCTCTCATTGCATTGG; conditions: Na+ 100 mM; 50 mM Tris-HCl, 1 mM EDTA, pH 7.4, 25 °C
[7] = test system: ATATAT (DNA, hairpin) CCATATATGCTCTCATATATGG; conditions: Na+ 100 mM, 50 mM Tris-HCl, 1 mM EDTA, pH 7.4, 25 °C
[8] = test system: AATGAAT (DNA, hairpin) CCAATGAATGCTCTCATTCATTGG; conditions: Na+ 100 mM; 50 mM Tris-HCl, 1 mM EDTA, pH 7.4, 25 °C
[9] = test system: AAAGCTTT (DNA, hairpin) CCAAAGCTTTGCTCTCAAAGCTTTGG; conditions: Na+ 100 mM; 50 mM Tris-HCl, 1 mM EDTA, pH 7.4, 25 °C
[10] = test system: AAAGCAAA (DNA, hairpin) CCAAAGCAAAGCTCTCTTTGCTTTGG; conditions: Na+ 100 mM, 50 mM Tris-HCl, 1 mM EDTA, pH 7.4, 25 °C
[11] = test system: AAAGTTT (DNA, hairpin) CCAAAGTTTGCTCTCAAACTTTGG; conditions: Na+ 100 mM, 50 mM Tris-HCl, 1 mM EDTA, pH 7.4, 25 °C
[12] = test system: AAAAAA (DNA, hairpin) CCAAAAAAGCTCTCTTTTTTGG; conditions: Na+ 100 mM, 50 mM Tris-HCl, 1 mM EDTA, pH 7.4, 25 °C

Compound: c1cc(COc2ccc(C3=NCCCN3)cc2)nc(COc2ccc(C3=NCCCN3)cc2)c1
- KD [1]: 141 nM
- KD [2]: 4.6 nM
- KD [3]: 138 nM
- KD [4]: 33.6 nM
- KD [5]: 256 nM
- KD [6]: 534 nM
- KD [7]: 709 nM
- KD [8]: 5.7 nM
- KD [9]: 27 nM
- KD [10]: 653 nM
- KD [11]: 1 nM
- KD [12]: 1111 nM

Compound: N=C(N)c1ccc(OCc2cccc(COc3ccc(C(=N)N)cc3)n2)cc1
- binding ([1]; NB [sic]): no
- KD [2]: 19 nM
- KD [3]: 374 nM
- KD [4]: 68 nM
- KD [5]: 719 nM
- KD [6]: 1176 nM
- binding ([7]; NB [sic]): no
- KD [8]: 24 nM
- KD [9]: 58 nM
- binding ([10]; NB [sic]): no
- KD ([11]; text b19 gives 1.8 nM): 1.4 nM
- binding ([12]; NB [sic]): no

Compound: N=C(N)c1ccc(OCc2cccc(COc3ccc(C(N)=O)cc3)n2)cc1
- KD [8]: 689 nM
- KD [9]: 1025 nM
- KD [11]: 52 nM

Compound: c1cc(COc2ccc(C3=NCCN3)cc2)nc(COc2ccc(C3=NCCN3)cc2)c1
- KD [2]: 43 nM
- binding ([3]; NB [sic]): no
- KD [4]: 227 nM
- KD [5]: 1000 nM
- KD [8]: 101 nM
- KD [9]: 123 nM
- KD [11]: 3.6 nM

Compound: N=C(N)c1ccc(OCc2cccc(COc3ccc(C(=N)N)cc3)c2)cc1
- KD ([1]; Figure S2 prints 344 nM): 117 nM
- binding ([2]; NB [sic]): no
- KD [3]: 84 nM
- KD [7]: 344 nM
- KD [11]: 900 nM
- KD [12]: 261 nM
